Measurements published in patent US11814445B2, “Cyclic polypeptides for PCSK9 inhibition” (Ra Pharmaceuticals, Inc., priority 2018, dated 2023).
Numbered stars: 1 amine (or outer) side, 2 acyl side, 3 side chain; on linkers, the order of the positions; unused ones are H or OH. Bridge positions count the residues as written; N and C are the ends. Square brackets hold non-standard residues; d marks the D form. Peptide text beside a SMILES is read from it. Phe(4-CF3) = N[C@@H](Cc1ccc(C(F)(F)F)cc1)C(=O)O; Trp(5-F) = N[C@@H](Cc1c[nH]c2ccc(F)cc12)C(=O)O; Pro(trans-4-F) = O=C(O)[C@@H]1C[C@@H](F)CN1; Asp(3,3-Me2) = CC(C)(C(=O)O)[C@H](N)C(=O)O; Phe(4-CN) = N#Cc1ccc(C[C@H](N)C(=O)O)cc1; Phe(4-Cl) = N[C@@H](Cc1ccc(Cl)cc1)C(=O)O; Pro(cis-4-F) = O=C(O)[C@@H]1C[C@H](F)CN1; X1 = O=C(CCSCc1cccc(CSCCN[*:1])c1)[*:2]; 1Nal = N[C@@H](Cc1cccc2ccccc12)C(=O)O; 2Nal = N[C@@H](Cc1ccc2ccccc2c1)C(=O)O; mXylylene = c1cc(C[*:1])cc(C[*:2])c1; NBzl(4-I)Gly = O=C(O)CNCc1ccc(I)cc1; NMeY = CN[C@@H](Cc1ccc(O)cc1)C(=O)O; Igl = N[C@H](C(=O)O)C1Cc2ccccc2C1; 4Pal = N[C@@H](Cc1ccncc1)C(=O)O; Cha = N[C@@H](CC1CCCCC1)C(=O)O; Tle = CC(C)(C)[C@H](N)C(=O)O; αMeP = C[C@@]1(C(=O)O)CCCN1; Ac5c = NC1(C(=O)O)CCCC1; Nva = CCC[C@H](N)C(=O)O; Aib = CC(C)(N)C(=O)O; Mpa = O=C(O)CCS

Biological target: human PCSK9 / human LDLR EGFa domain (Homo sapiens, UniProt Q8NBP7)
Test: TR-FRET assay of inhibition of the PCSK9-LDLR protein-protein interaction
Format: binding
Conditions: 20 nM human PCSK9, 20 nM human LDLR EGFa domain, 2 hours room temperature
Experimental: A time-resolved fluorescence resonance energy (TR-FRET) assay was used to measure inhibition of the PCSK9-LDLR protein-protein interaction. Briefly, 20 nM avitag-biotinylated human PCSK9 was incubated with 20 nM his-tagged human LDLR EGFa domain in the presence of 5 nM LANCE Ulight Streptavidin (Perkin Elmer) and 5 nM europium-Anti-6×His (Perkin Elmer) for 2 hours covered at room temperature in buffer containing 50 mM HEPES, 150 mM NaCl, 5 mM CaCl2), 0.01% BSA and 0.01% Surfactant P20. Compounds were tested in dose-response and concentrations giving half-maximal inhibition calculated using a 4-parameter fit equation.

Chain of human PCSK9 / human LDLR EGFa domain (Q8NBP7 153-692): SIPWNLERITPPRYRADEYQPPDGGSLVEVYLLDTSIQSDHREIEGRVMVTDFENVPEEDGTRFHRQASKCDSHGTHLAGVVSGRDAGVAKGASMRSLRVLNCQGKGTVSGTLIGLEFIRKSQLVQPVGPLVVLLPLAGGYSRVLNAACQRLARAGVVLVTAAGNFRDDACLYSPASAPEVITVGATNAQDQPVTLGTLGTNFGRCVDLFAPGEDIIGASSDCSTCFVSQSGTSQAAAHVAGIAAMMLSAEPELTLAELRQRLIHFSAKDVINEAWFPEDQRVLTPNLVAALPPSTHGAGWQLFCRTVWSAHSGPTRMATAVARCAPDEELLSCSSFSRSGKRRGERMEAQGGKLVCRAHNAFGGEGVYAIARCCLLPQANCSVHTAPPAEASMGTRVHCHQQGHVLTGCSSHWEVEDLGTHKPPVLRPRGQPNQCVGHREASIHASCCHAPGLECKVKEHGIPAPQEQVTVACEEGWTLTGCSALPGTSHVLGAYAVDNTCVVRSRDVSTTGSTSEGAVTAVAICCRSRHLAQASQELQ

SMILES	IC50 [nM]
C[C@@H]1NC(=O)CCSCc2cccc(c2)CSCCNC(=O)[C@@H]2CCCN2C(=O)[C@H](Cc2cccc3ccccc23)NC(=O)[C@H](C)NC(=O)[C@@H]2CCCN2C(=O)[C@H](Cc2c[nH]c3ccc(F)cc23)NC(=O)[C@H](Cc2cccc3ccccc23)NC(=O)[C@@H](C)NC1=O [Compound 080] (cyclo([1Nal]P[X1]A[dA][1Nal][Trp(5-F)]PA))	1000 to 12100
COc1ccc(C[C@@H]2NC(=O)[C@H](Cc3c[nH]c4ccc(F)cc34)NC(=O)CNC(=O)[C@H](CCCCN)NC(=O)CCSCc3cccc(c3)CSC[C@@H](C(N)=O)NC(=O)[C@@H]3CCCN3C(=O)[C@H](Cc3ccc(O)cc3)NC(=O)[C@H](C)NC(=O)[C@@H]3CCCN3C2=O)cc1 [Compound 018] ([Mpa]KG[Trp(5-F)]Y(Me)PAYPC-NH2; linker 1-10 via mXylylene)	100 to 1000
C[C@@H]1NC(=O)[C@@H]2CCCN2C(=O)[C@H](Cc2ccncc2)NC(=O)[C@H](Cc2c[nH]c3ccc(F)cc23)NC(=O)CNC(=O)[C@H](CCCCN)NC(=O)CCSCc2cccc(c2)CSC[C@@H](C(N)=O)NC(=O)[C@@H]2CCCN2C(=O)[C@H](Cc2ccc(O)cc2)NC1=O [Compound 021] ([Mpa]KG[Trp(5-F)][4Pal]PAYPC-NH2; linker 1-10 via mXylylene)	100 to 1000
C[C@@H]1NC(=O)CCSCc2cccc(c2)CSCCNC(=O)[C@@H]2CCCN2C(=O)[C@H](Cc2cccc3ccccc23)NC(=O)[C@H](C)NC(=O)[C@@H]2CCCN2C(=O)[C@H](Cc2c[nH]c3ccc(F)cc23)NC(=O)[C@H](Cc2c[nH]c3ccc(F)cc23)NC(=O)[C@@H](C)NC1=O [Compound 065] (cyclo([1Nal]P[X1]A[dA][Trp(5-F)][Trp(5-F)]PA))	21000 to 50000
C[C@@H]1NC(=O)[C@@H]2CCCN2C(=O)[C@H](Cc2c[nH]c3ccc(F)cc23)NC(=O)[C@H](Cc2c[nH]c3ccc(F)cc23)NC(=O)[C@@H](C)NC(=O)[C@H](C(C)(C)C)NC(=O)CCSCc2cccc(c2)CSCCNC(=O)[C@@H]2CCCN2C(=O)[C@H](Cc2ccc(O)cc2)NC1=O [Compound 095] (cyclo(AYP[X1][Tle][dA][Trp(5-F)][Trp(5-F)]P))	100 to 1000
C[C@@H]1NC(=O)[C@@H]2CCCN2C(=O)CN(Cc2ccc(I)cc2)C(=O)[C@H](Cc2c[nH]c3ccc(F)cc23)NC(=O)CNC(=O)[C@H](CCCCN)NC(=O)CCSCc2cccc(c2)CSC[C@@H](C(N)=O)NC(=O)[C@@H]2CCCN2C(=O)[C@H](Cc2ccc(O)cc2)NC1=O [Compound 010] ([Mpa]KG[Trp(5-F)][NBzl(4-I)Gly]PAYPC-NH2; linker 1-10 via mXylylene)	100 to 1000
C[C@@H]1NC(=O)[C@@H]2CCCN2C(=O)[C@H](Cc2c[nH]c3ccc(F)cc23)NC(=O)[C@H](Cc2c[nH]c3ccc(F)cc23)NC(=O)[C@@H](C)NC(=O)[C@@H]2CCCN2C(=O)CCSCc2cccc(c2)CSCCNC(=O)[C@@H]2CCCN2C(=O)[C@H](Cc2ccccc2)NC1=O [Compound 057] (cyclo(AFP[X1]P[dA][Trp(5-F)][Trp(5-F)]P))	100 to 1000
NCCCC[C@@H]1NC(=O)CCSCc2cccc(c2)CSC[C@@H](C(N)=O)NC(=O)[C@@H]2CCCN2C(=O)[C@@H]2CCCN2C(=O)[C@@H]2CCCN2C(=O)[C@@H]2CCCN2C(=O)[C@H](Cc2c[nH]c3ccc(F)cc23)CC(=O)[C@H](Cc2c[nH]c3ccc(F)cc23)NC(=O)CNC1=O [Compound 033]	1000 to 12100
C[C@@H]1NC(=O)CCSCc2cccc(c2)CSC[C@@H](C(N)=O)NC(=O)[C@@H]2CCCN2C(=O)[C@H](Cc2ccc(Cl)cc2)NC(=O)[C@H](C)NC(=O)[C@@H]2CCCN2C(=O)[C@H](Cc2c[nH]c3ccc(F)cc23)NC(=O)[C@H](Cc2c[nH]c3ccc(F)cc23)NC(=O)[C@@H](C)NC1=O [Compound 083] ([Mpa]A[dA][Trp(5-F)][Trp(5-F)]PA[Phe(4-Cl)]PC-NH2; linker 1-10 via mXylylene)	21000 to 50000
C[C@@H]1NC(=O)[C@@H]2CCCN2C(=O)[C@H](Cc2c[nH]c3ccc(F)cc23)NC(=O)[C@H](Cc2c[nH]c3ccc(F)cc23)NC(=O)[C@@H](C)NC(=O)C2(CCCC2)NC(=O)CCSCc2cccc(c2)CSCCNC(=O)[C@@H]2CCCN2C(=O)[C@H](Cc2ccc(O)cc2)NC1=O [Compound 030] (cyclo(AYP[X1][Ac5c][dA][Trp(5-F)][Trp(5-F)]P))	100 to 1000
C[C@@H]1NC(=O)[C@@H]2C[C@H](F)CN2C(=O)[C@H](Cc2c[nH]c3ccc(F)cc23)NC(=O)[C@H](Cc2c[nH]c3ccc(F)cc23)NC(=O)CNC(=O)[C@H](CCCCN)NC(=O)CCSCc2cccc(c2)CSC[C@@H](C(N)=O)NC(=O)[C@@H]2CCCN2C(=O)[C@H](Cc2ccc(O)cc2)NC1=O [Compound 002] ([Mpa]KG[Trp(5-F)][Trp(5-F)][Pro(cis-4-F)]AYPC-NH2; linker 1-10 via mXylylene)	1 to 100
C[C@@H]1NC(=O)[C@@H]2CCCN2C(=O)[C@H](Cc2ccc(C(F)(F)F)cc2)NC(=O)[C@H](Cc2c[nH]c3ccc(F)cc23)NC(=O)CNC(=O)[C@H](CCCCN)NC(=O)CCSCc2cccc(c2)CSC[C@@H](C(N)=O)NC(=O)[C@@H]2CCCN2C(=O)[C@H](Cc2ccc(O)cc2)NC1=O [Compound 007] ([Mpa]KG[Trp(5-F)][Phe(4-CF3)]PAYPC-NH2; linker 1-10 via mXylylene)	1000 to 12100
C[C@@]12CCCN1C(=O)[C@H](Cc1ccc(O)cc1)NC(=O)[C@H](Cc1cnc[nH]1)NC(=O)[C@@H]1CCCN1C(=O)[C@H](Cc1c[nH]c3ccc(F)cc13)NC(=O)[C@H](CC1CCCCC1)NC(=O)CNC(=O)[C@H](CCCCN)NC(=O)CCSCc1cccc(c1)CSCCNC2=O [Compound 104] (cyclo([Cha][Trp(5-F)]PHY[αMeP][X1]KG))	1000 to 12100
C[C@@H]1NC(=O)[C@@H]2C[C@@H](F)CN2C(=O)[C@H](Cc2c[nH]c3ccc(F)cc23)NC(=O)[C@H](Cc2c[nH]c3ccc(F)cc23)NC(=O)[C@@H](C)NC(=O)[C@H](CCCCN)NC(=O)CCSCc2cccc(c2)CSC[C@@H](C(N)=O)NC(=O)[C@@H]2CCCN2C(=O)[C@H](Cc2ccc(O)cc2)NC1=O [Compound 037] ([Mpa]K[dA][Trp(5-F)][Trp(5-F)][Pro(trans-4-F)]AYPC-NH2; linker 1-10 via mXylylene)	100 to 1000
C[C@@H]1NC(=O)[C@@H]2CCCN2C(=O)[C@H](C2Cc3ccccc3C2)NC(=O)[C@H](Cc2c[nH]c3ccc(F)cc23)NC(=O)CNC(=O)[C@H](CCCCN)NC(=O)CCSCc2cccc(c2)CSC[C@@H](C(N)=O)NC(=O)[C@@H]2CCCN2C(=O)[C@H](Cc2ccc(O)cc2)NC1=O [Compound 008] ([Mpa]KG[Trp(5-F)][Igl]PAYPC-NH2; linker 1-10 via mXylylene)	100 to 1000
C[C@@H]1NC(=O)[C@@H]2CCCN2C(=O)[C@H](Cc2c[nH]c3ccc(F)cc23)NC(=O)[C@H](Cc2c[nH]c3ccc(F)cc23)NC(=O)[C@@H](C)NC(=O)[C@@H]2CCCN2C(=O)CCSCc2cccc(c2)CSCCNC(=O)[C@@H]2CCCN2C(=O)[C@H](Cc2ccc(O)cc2)N(C)C1=O [Compound 052] (cyclo(A[NMeY]P[X1]P[dA][Trp(5-F)][Trp(5-F)]P))	100 to 1000
C[C@@H]1NC(=O)CCSCc2cccc(c2)CSCCNC(=O)[C@@H]2CCCN2C(=O)[C@H](Cc2ccc3ccccc3c2)NC(=O)[C@H](C)NC(=O)[C@@H]2CCCN2C(=O)[C@H](Cc2c[nH]c3ccc(F)cc23)NC(=O)[C@H](Cc2cccc3ccccc23)NC(=O)[C@@H](C)NC1=O [Compound 079] (cyclo([1Nal][Trp(5-F)]PA[2Nal]P[X1]A[dA]))	100 to 1000
CCC[C@@H]1NC(=O)CCSCc2cccc(c2)CSCCNC(=O)[C@@H]2CCCN2C(=O)[C@H](Cc2ccc(O)cc2)NC(=O)[C@H](C)NC(=O)[C@@H]2CCCN2C(=O)[C@H](Cc2c[nH]c3ccc(F)cc23)NC(=O)[C@H](Cc2c[nH]c3ccc(F)cc23)NC(=O)[C@@H](C)NC1=O [Compound 093] (cyclo(AYP[X1][Nva][dA][Trp(5-F)][Trp(5-F)]P))	1000 to 12100
C[C@@H]1NC(=O)[C@@H]2CCCN2C(=O)[C@H](Cc2c[nH]c3ccc(F)cc23)NC(=O)[C@H](Cc2c[nH]c3ccc(F)cc23)NC(=O)CNC(=O)[C@H](CCCCN)NC(=O)CCSCc2cccc(c2)CSC[C@@H](C(N)=O)NC(=O)[C@@H]2CCCN2C(=O)[C@@H]2CCCN2C1=O [Compound 032] ([Mpa]KG[Trp(5-F)][Trp(5-F)]PAPPC-NH2; linker 1-10 via mXylylene)	100 to 1000
CC(C)(C(=O)O)[C@@H]1NC(=O)[C@H](Cc2c[nH]c3ccc(F)cc23)NC(=O)[C@H](Cc2c[nH]c3ccc(F)cc23)NC(=O)CNC(=O)[C@H](CCCCN)NC(=O)CCSCc2cccc(c2)CSC[C@@H](C(N)=O)NC(=O)[C@]2(C)CCCN2C(=O)[C@H](Cc2ccc(O)cc2)NC(=O)[C@H](Cc2cnc[nH]2)NC1=O [Compound 115] ([Mpa]KG[Trp(5-F)][Trp(5-F)][Asp(3,3-Me2)]HY[αMeP]C-NH2; linker 1-10 via mXylylene)	100 to 1000
CN1C(=O)[C@H](Cc2cnc[nH]2)NC(=O)C(C)(C)NC(=O)[C@H](Cc2c[nH]c3ccc(F)cc23)NC(=O)[C@H](Cc2c[nH]c3ccc(F)cc23)NC(=O)CNC(=O)[C@H](CCCCN)NC(=O)CCSCc2cccc(c2)CSCCNC(=O)[C@]2(C)CCCN2C(=O)[C@@H]1Cc1ccc(O)cc1 [Compound 111] (cyclo([Aib]H[NMeY][αMeP][X1]KG[Trp(5-F)][Trp(5-F)]))	1000 to 12100
C[C@@H]1NC(=O)CCSCc2cccc(c2)CSC[C@@H](C(N)=O)NC(=O)[C@@H]2CCCN2C(=O)[C@H](Cc2ccc(C#N)cc2)NC(=O)[C@H](C)NC(=O)[C@@H]2CCCN2C(=O)[C@H](Cc2c[nH]c3ccc(F)cc23)NC(=O)[C@H](Cc2c[nH]c3ccc(F)cc23)NC(=O)[C@@H](C)NC1=O [Compound 081] ([Mpa]A[dA][Trp(5-F)][Trp(5-F)]PA[Phe(4-CN)]PC-NH2; linker 1-10 via mXylylene)	1000 to 12100
